Measured values reported in article PMC7017074 (Cancers, 2020).
Values belong to the molecule of their own block, whether it stands above or below them.

How the values were obtained:
[1] = tumor-bearing mice, 25 days, vs untreated group; CYP 0.3 mg/kg BW
[2] = system: 4T1 cells; test: Tumor regression study in murine breast cancer model; format: in vivo, Balb/c mice
[3] = Animal biodistribution study (organ and tumor distribution of DOX); format: in vivo, Balb/c mice; settings: for DOX in heart / DOX in kidney / DOX in liver / DOX in lungs / DOX in spleen / DOX in tumor: 4T1 tumor mice, IV DOX 5 mg/kg
[4] = Serum drug concentration following an intravenous injection; format: in vivo, Balb/c mice
Experimental: The mice were sacrificed after 2 h and 24 h of tail-vein injection (n = 5). The organs such as the liver, kidney, heart, spleen, lungs, and brain, as well as the tumor tissues, were isolated and kept in lysis buffer (pH 7.4) and kept at −150 °C in a freezer until further analysis. Additionally, the weights of all the organs and tumor tissues were measured for quantitative analysis of the presence of drug-loaded NPs.
To determine the serum level of total drug-loaded NPs, blood samples of all the mice treated (n = 5) were collected by cardiac puncture using a 1-mL syringe with a 25G needle. A secondary method of euthanasia was performed after a cardiac puncture to sacrifice the animal. The blood samples were collected at two time points of analysis (2 h and 24 h of treatment). The blood samples were allowed to clot by leaving them at room temperature and then centrifuged at 10,000 rpm for 30 min at 4 °C to collect the supernatant serum. Afterward, 100 µL of each serum sample was collected and stored at −80 °C until it was assayed. The fluorescence emission of serum was measured using Perkin Elmer 2030 manager software attached to a 2030 multilabel reader victor X5 (Perkin Elmer) at 485/535 nm. The data were illustrated as means ± SD in RFU/100 µL of serum.

SMILES: O=P1(N(CCCl)CCCl)NCCCO1 (stereo not drawn) [free CYP, cyclophosphamide]
body weight gain / visible toxicity [1]: significantly slowed the gain | tumor size at first treatment ([2]; day 14 after tumor inoculation, when first treatment was administered): 145.89 ± 33.53 mm^3 | tumor size, times less than the untreated group ([2]; day 27): ~3.5 | tumor size ([2]; day 27, IV, three doses every two days from day 14, CYP 0.3 mg/kg where drug present): 633.33 ± 121.16 mm^3

DOX in heart ([3]; 2 h): 2.86 ± 0.23 ng/mg | DOX in kidney ([3]; 2 h): 1.45 ± 0.01 ng/mg | DOX in liver ([3]; 2 h): 0.3 ± 0.01 ng/mg | DOX in lungs ([3]; 2 h): 0.11 ± 0.01 ng/mg | DOX in spleen ([3]; 2 h): 0.13 ± 0.01 ng/mg | DOX in tumor ([3]; 2 h): 0.37 ± 0.01 ng/mg | DOX in tumor ([3]; 2 h, listed as free DOX): 0.37 ± 0.002 ng/mg | DOX in heart ([3]; 24 h): 4.28 ± 0.63 ng/mg | DOX in kidney ([3]; 24 h): 1.45 ± 0.01 ng/mg | DOX in liver ([3]; 24 h): 1.18 ± 0.31 ng/mg | DOX in lungs ([3]; 24 h): 0.14 ± 0.01 ng/mg | DOX in spleen ([3]; 24 h): 0.14 ± 0.01 ng/mg | DOX in tumor ([3]; 24 h): 0.37 ± 0.01 ng/mg | organ distribution, brain (%) ([3]; 2 h, Supplementary Table 1): 0.13% | organ distribution, heart (%) ([3]; 2 h, Supplementary Table 1): 0.41% | organ distribution, kidney (%) ([3]; 2 h, Supplementary Table 1): 0.42% | organ distribution, liver (%) ([3]; 2 h, Supplementary Table 1): 0.35% | organ distribution, lungs (%) ([3]; 2 h, Supplementary Table 1): 0.08% | organ distribution, spleen (%) ([3]; 2 h, Supplementary Table 1): 0.08% | organ distribution, tumor (%) ([3]; 2 h, Supplementary Table 1): 0.08% | organ distribution, brain (%) ([3]; 24 h, Supplementary Table 2): 0.47% | organ distribution, heart (%) ([3]; 24 h, Supplementary Table 2): 0.62% | organ distribution, kidney (%) ([3]; 24 h, Supplementary Table 2): 0.42% | organ distribution, liver (%) ([3]; 24 h, Supplementary Table 2): 1.38% | organ distribution, lungs (%) ([3]; 24 h, Supplementary Table 2): 0.08% | organ distribution, spleen (%) ([3]; 24 h, Supplementary Table 2): 0.08% | organ distribution, tumor (%) ([3]; 24 h, Supplementary Table 2): 0.08% | serum drug concentration, 2 h (%) ([4]; 2 h, Supplementary Table 3): 2.02% | serum drug concentration, 24 h (%) ([4]; 24 h, Supplementary Table 3): 1.71% | serum drug concentration, 2 h ([4]; DOX 5 mg/kg, 2 h): 110.53 ± 11.83 ng/100 μL | blood serum fluorescence, 2 h ([4]; DOX 5 mg/kg, 2 h (Figure 6)): 1008.3 ± 431.41 RFU/100 µL | serum drug concentration, 24 h ([4]; DOX 5 mg/kg, 24 h): 93.74 ± 3.89 ng/100 μL
SMILES: COc1cccc2c1C(=O)c1c(O)c3c(c(O)c1C2=O)C[C@@](O)(C(=O)CO)C[C@@H]3O[C@H]1C[C@H](N)[C@H](O)[C@H](C)O1 [Free DOX, doxorubicin]
